Source: patent US7507792B2, “MDA-7 proteins and methods of use thereof” (The Trustees of Columbia University In The City of New York, priority 1993, dated 2009)
“Also recorded” adds a separate entry of the source.

Key:
Type in all cases: cell-based, human
mda-6 = mda-6 expression (Northern blotting)
Description: (§1) The mass excision of the library was performed using ExAssist helper phage as described above. The SOLR strain of Escherichia coli and cDNA phagemids were mixed at 37° C. for 15 min and plated onto LB plates containing ampicillin and IPTG/X-gal. White colonies were chosen at random, isolated and grown in LB medium. Plasmid minireps and restriction enzyme digestions were performed to confirm the presence of inserts. The inserts were isolated and used as robes for Northern blotting analysis (5,25). […] Radiolabeled probes were generated by random oligonucleotide priming (25). Prehybridization, hybridization, posthybridization washes, and autoradiography were performed as described (5,18,25).
Total cytoplasmic RNA was isolated and Northern blotting hybridization was performed as described (Reddy et al., 1991; Su et al., 1991; Jiang et al., 1992). Ten μg of RNA was denatured with glyoxal/DMSO, electrophoresed on 1.0% agarose gels, transferred to nylon membranes and hybridized to a ^32P-labeled p53 probe (Baker et al., 1990). The nylon membrane was stripped and hybridized to a ^32P-labeled mda-6 probe (Jiang and Fisher, 1993) and then after a second stripping the membrane was hybridized to a ^32P-labeled rat GAPDH probe (Fort et al., 1985), as described previously (Reddy et al., 1991; Su et al., 1991; Jiang et al., 1992). Following hybridization, the filters were washed and exposed for autoradiography (Reddy et al., 1991; Su et al., 1991; Jiang et al., 1992). mda-6 and GAPDH gene expression were also determined by reverse transcription-polymerase chain reaction (RT-PCR) as described (Adollahi et al., 1991; Lin et al., 1994; Jiang et al., 1994b). Total cytoplasmic RNA was treated with 0.5 units DNase (Boehringer-Mannheim Biochemicals)/μg RNA in 15% glycerol, 10 mM Tris, pH 7.5, 2.5 mM MgCl2, 0.1 mM EDTA, 80 mM KCl, 1 mM CaCl2 and 1 unit/ml RNasin (Promega) at 30° C. for 10 min. RNA was extracted with phenol-chloroform, precipitated with sodium acetate/ethanol and RNA pellets were resuspended in diethylpyrocarbonate-treated H2O. One μg of total RNA was reverse transcribed with 200 units of murine leukemia virus reverse transcriptase (Bethesda Research Laboratories) in 20 μl containing 1 mM deoxyribonucleotide triphosphates, 4 mM MgCl2, 10 mM Tris, pH 8.3, 50 mM KCl, 0.001% gelatin and 0.2 μg oligo-dT primer. Samples were adjusted to 100 μl with buffer containing 0.2 mM deoxyribonucleotide triphosphates, 2 mM MgCl2, 10 mM Tris, pH 8.3, 50 mM KCl and 0.001% gelatin. Fifty pmol of each primer, 1.5 units Taq DNA polymerase (Perkin-Elmer Cetus) were added and samples were covered with mineral oil, heated at 95° C. for 5 min and subjected to 25 cycles of PCR in a Perkin-Elmer Thermal Cycler using 1 min denaturation at 94° C., 2 min annealing at 55° C. and 3 min polymerization at 72° C. After extraction with chloroform, 20 μl of products were electrophoresed, blotted onto nylon filters and hybridized with an mda-6 or GAPDH specific probe. The mda-6 primers were 5′ to 3′ […] (SEQ ID NO:26) and […] (SEQ ID NO:27)(corresponding to nt 1527 to 1546) (GenBank accession number U09579); and the GAPDH primers were 5′ to 3′ […] (SEQ ID NO:28)and […] (SEQ ID NO:29)(corresponding to nt 1070 to 1053) (Tokunaga et al., 1987).

mda-7 = mda-7 expression (Northern blotting, RT-PCR); conditions: for mda-7 expression: H0-1
Description: as §1

[1] = test system: MDA-6 (WAF1/CIP1/SDI1) protein; assay: Immunoprecipitation of MDA-6 (WAF1/CIP1/SDI1) protein in HL-60 cells; conditions: TPA, DMSO (1%) or RA (1 μM), 12, 24, 48 and 72 h tested
Description: Immunoprecipitation analyses were performed as described previously (Duigou et al., 1991; Su et al. 1993). Logarithmically growing HL-60 cells were either untreated or treated for 12, 24, 48 or 72 h with TPA ([…]), RA (1 μM) or DMSO (1%) in 10-cm plates. Cultures were starved of methionine for 1 h at 37° C. in methionine-free medium, cells were concentrated by pelleting and labeled for 4 h at 37° C. in 1 ml of the same medium with 100 μCi of [^35S] (NEN; Express ^35S). After labeling, the cells were washed twice with ice-cold phosphate-buffered saline and lysed for 1 h on ice by the addition of RIPC (20 mM Tris-base, pH 7.5, 500 mM NaCl, 0.05% Nonidet P-40, 100 μg/ml phenylmethylsulfonyl fluoride and 0.02% sodium azide). The lysate was clarified by centrifugation in an Eppendorf microfuge at 10,000×g for 10 min at 4° C. Samples containing 4×10^6 counts were incubated with 2 μg of WAF1/CIP1 (C-19) (Santa Cruz Biotechnology) (or MDA-6 peptide-derived) rabbit polyclonal IgG or actin monoclonal antibody (Oncogene Sciences) with rocking at 4° C. for 24 h. The next day, 30 μl (packed volume) of protein G-agarose (Oncogene Sciences) was added to each tube, and incubation with rocking at 4° C. continued for another hour. The protein G pellets were then washed five times with 1 ml of ice-cold RIPC:phosphate-buffered saline (1:1, v/v). Thirty μl of sodium dodecyl sulfate-polyacrylamide gel electrophoresis buffer were added to the pellets, and the sample was heated at 87° C. for 3 min. The samples were loaded onto an 10% polyacrylamide gel and run overnight at 40 V. The gel contained Rainbow protein markers (Amersham) for sizing. Gels were fixed with 10% acetic acid plus 10% methanol for 30 min, incubated in DMSO for 30 min, incubated with 10% 2,5-diphenyloxazole in DMSO for 30 min, washed three times with cold water (10 min each), dried and exposed to film.

[2] = H0-1, 96 hours, doses of FIG. 15 legend
[3] = 96 hours, doses of FIG. 15 legend
[4] = terminally differentiated HL-60 cells, TPA for 2 days, RA for 4 days

With `C=C(C)[C@@]12O[C@@]3(c4ccccc4)O[C@@H]1[C@@H]1[C@@H]4O[C@]4(CO)[C@@H](O)[C@]4(O)C(=O)C(C)=C[C@H]4[C@@]1(O3)[C@H](C)[C@H]2OC(=O)/C=C/C=C/c1ccccc1` [MEZ, mezerein] the mda-6 expression (mda-6; H0-1, 24 hours, doses of FIG. 19, phenyl butyrate 24 hours, 4 or 7 days) was “increased expression; also recorded: smaller induction of mda-6 expression”, the mda-6 expression (mda-6; [2]) was “no significant or reduced alteration in expression” and the mda-7 expression (mda-7; 24 hours, doses of FIG. 19, phenyl butyrate 24 hours, 4 days or 7 days) was “increased mda-7 expression”. For the same compound, the mda-7 expression (mda-7; [3]) was “Increased expression”.
With `CC1=C(/C=C/C(C)=C/C=C/C(C)=C/C(=O)O)C(C)(C)CCC1` [RA, trans-retinoic acid] the mda-6 expression (mda-6; [2]) was “no significant or reduced alteration in expression”, the mda-7 expression (mda-7; [3]) was “does not induce growth changes or induce mda-7 expression” and the “mda-7 expression (RT-PCR)” value (mda-7; LAN human neuroblastoma cells, 5 days) was “not induced”. The “mda-7 expression (RT-PCR)” value (mda-7; [4]) was “persists” and the “time of treatment at which MDA-6 protein is detected” value [1] was 12 h.
`CCCCCCCCCCCCCC(=O)O[C@@H]1[C@@H](C)[C@@]2(O)[C@@H](C=C(CO)C[C@]3(O)C(=O)C(C)=C[C@@H]23)[C@@H]2C(C)(C)[C@]12OC(C)=O` [TPA, 12-O-tetradecanoyl-phorbol-13-acetate] was tested, and the mda-6 expression (mda-6; human histiocytic lymphoma, U-937, cells, differentiation and growth arrest) was “induced”, the “mda-7 expression (RT-PCR)” value (mda-7; HL-60 and U-937 cells) was “induced” and the “mda-7 expression (RT-PCR)” value (mda-7; [4]) was “persists”. For the same compound, the “time of treatment at which MDA-6 protein is detected” value [1] was 12 h.
